In US7332615B2, “Hydrophilic analogs of 4,8-dihydrobenzodithiophene-4,8-diones as anticancer agents” (Industrial Technology Research Institute, priority 2004, dated 2008):
pIC50: −log10 of the molar value. Where a name gives a salt, the structure may show the parent alone. Read-outs that look alike come from different tables or passages of the source.

Experiments:
[1] = Cytotoxicity Assays Method A (alamarBlue anti-proliferative assay), HUVEC; type: cell-based; details: human, HUVEC (human umbilical vein endothelial cells), 72-hour incubation, alamarBlue
Excerpt: (§1) Cytotoxicity Assays Method A (HUVEC, MCF-7, HT-29, Hep 3B and NCl-H460) [S. A. Ahmed, R. M. Gogal Jr., and J. E. Walsh, Journal of Immunological Methods 170: 211-224, (1994): M. R. Boyd, Status of the NCl preclinical antitumor drug discovery screen. (Published by J. B. Lippincoft Company, Philadelphia, Pa. 19105, USA) Principles & Practices of Oncology Updates 3 # 10: 1-12, (1989); M. R. Boyd, et al. Data display and analysis strategies for the NCl disease-oriented in vitro antitumor drug screen. In: Cytotoxic anti-cancer drugs: models and concepts for drug discovery and development. Boston: Kluwer Academic, Pages; 11-34, (1992)]
(§2) The test compounds were dissolved in 100% DMSO and then diluted with sterile distilled water to obtain initial working solutions of 20000, 2000, 200, 20 and 2 μM in 80% DMSO. A 200 fold dilution was further made in culture media to generate final assay concentrations of 100, 10, 1, 0.1 and 0.01 μM in 0.4% DMSO.
(§3) Aliquots of 100 μl of cell suspension (about 1.5-3.0×10^3/well) were placed in 96-well microtiter plates in an atmosphere of 5% CO2 at 37° C. After 24 hours, 100 μl of growth medium and 1 μl of test solution or vehicle (80% DMSO) were added respectively per well in duplicate for an additional 72-hour incubation. Thus, the final concentration of DMSO was 0.4%. The test compounds, IIa-1, IIb-1 and VII-1 were evaluated at concentrations of 100, 10, 1, 0.1 and 0.01 μM. At the end of incubation, 20 μl of alamarBlue 90% reagent was added to each well for another 6-hour incubation before detection of cell viability by fluorescent intensity. Fluorescent intensity was measured using a Spectraflour Plus plate reader with excitation at 530 nm and emission at 590 nm.
(§4) The measured results was calculated by the following formula: PG(%)=100×(Mean Ftest−Mean Ftime0)/(Mean Fctrl−Mean Ftime0)] If(Mean Ftest−Mean Ftime0)<0, then PG(%)=100×(Mean Ftest−Mean Ftime0)/(Mean Ftime0−Mean Fblank) wherein PG represents percent growth;
(§5) A decrease of 50% or more (≧50%) in fluorescent intensity relative to the vehicle-treated control indicates significant cytostatic or cytotoxic activity, and semi-quantitative values for IC50, TGI and LC50 were then determined by nonlinear regression using GraphPad Prism (GraphPad Software, USA).
(§6) IC50 (50% Inhibition Concentration); Test compound concentration where the increase from times in the number or mass of treated cells was only 50% as much as the corresponding increase in the vehicle-control at the end of experiment.
(§7) TGI (Total Growth Inhibition): Test compound concentration where the number or mass of treated cells at the end of experiment was equal to that at time0.
(§8) LC50 (50% Lethal Concentration): Test compound concentration where the number or mass of treated cells at the end of experiment was half that at time.
(§9) The assays were used to detect changes in cell proliferation based on the ability of viable cells to cause alamarBlue to change from its oxidized to a reduced form. With the results obtained from the alamarBlue reaction, cell proliferation can be quantified and metabolic activity of viable cell can be examined.
(§10) The succinate derivatives of compounds IIa-1, IIb-1 and VII-1 were tested for possible effect on the proliferation of four human tumor cell lines ˜MCF-7 (breast), HT-29 (colon), Hep3B (liver), and NCl—H 460 (lung) as well as one human umbilical vein endothelial cell (HUVEC) at assay concentration from 0.01 to 100 μM, through serial 10-fold dilution.

HUVEC = assay: as above; type: cell-based; details: for TGI (Total growth Inhibition): 72-hour incubation, alamarBlue; for pIC50: Homo sapiens, 72 h, read-out: IC50 (50% Inhibition Concentration)
Excerpt: as §1, §2, §3, §4, §5, §6, §7, §8, §9, §10

MCF-7 = assay: Cytotoxicity Assays Method A (alamarBlue anti-proliferative assay), MCF-7; type: cell-based; details: for pIC50 / CC50: Homo sapiens; for pIC50: MCF7, 72 h, read-out: IC50 (50% Inhibition Concentration); for CC50: MCF7, read-out: LC50 (50% Lethal Concentration); for CC50 / TGI (Total growth Inhibition): MCF-7, 72-hour incubation, alamarBlue; for cytotoxicity against MCF-7 (in words): MCF-7, summary of Table 1
Excerpt: as §1, §2, §3, §4, §5, §6, §7, §8, §9, §10

HT-29 = assay: Cytotoxicity Assays Method A (alamarBlue anti-proliferative assay), HT-29; type: cell-based; details: for TGI (Total growth Inhibition) / LC50 (50% lethal concentration): HT-29, 72-hour incubation, alamarBlue; for pIC50 / LC50 (50% lethal concentration): Homo sapiens; for pIC50: HT-29, 72 h, read-out: IC50 (50% Inhibition Concentration)
Excerpt: as §1, §2, §3, §4, §5, §6, §7, §8, §9, §10

Hep 3B = assay: Cytotoxicity Assays Method A (alamarBlue anti-proliferative assay), Hep 3B; type: cell-based; details: for cytotoxicity against Hep3B (in words): summary of Table 1; for TGI (Total growth Inhibition) / CC50: Hep-3B, 72-hour incubation, alamarBlue; for pIC50 / CC50: Homo sapiens; for cytotoxicity against Hep3B (in words) / pIC50 / CC50: Hep3B; for pIC50: 72 h, read-out: IC50 (50% Inhibition Concentration); for CC50: read-out: LC50 (50% Lethal Concentration)
Excerpt: as §1, §2, §3, §4, §5, §6, §7, §8, §9, §10

NCI-H460 = assay: Cytotoxicity Assays Method A (alamarBlue anti-proliferative assay), NCI-H460; type: cell-based; details: for pIC50 / CC50: Homo sapiens; for pIC50: NCI-H460, 72 h, read-out: IC50 (50% Inhibition Concentration); for CC50 / TGI (Total growth Inhibition): NCI-H460, 72-hour incubation, alamarBlue; for CC50: read-out: LC50 (50% Lethal Concentration)
Excerpt: as §1, §2, §3, §4, §5, §6, §7, §8, §9, §10

[2] = system: Human promyeloid leukemia HL-60 cells; assay: Cytotoxicity Assays Method B (MTT proliferation assay), HL-60; type: cell-based; details: for pIC50: Homo sapiens, read-out: IC50 (concentration at which 50% of the cells are inhibited from growing)
Protocol: Cytotoxicity Assays Method B (HL-60) [H. M. Chen et al. Chin. Pharm. J. 53, 157-167 (2001)]
Human promyeloid leukemia HL-60 cells were obtained from the American Type
Culture Collection (Manassas, Va., USA) and the Culture Collection and Research Center(CCRC) (Tai wan, ROC). Human promyeloid leukemia HL-60 cells were cultured in suspension in RPMI-1640 medium (GIBCO, Grand Is land, USA), containing 10% fetal bovine se rum (GIBCO, Grand Is land, USA), 100 unit/mL penicillin, […] streptomycin and 1% L-glutamine at 37° C. in a humidified atmosphere of 5% CO2 in air. Cells were split every day to maintain the cell numbers between 2−5×10^5/mL. Cell numbers were assessed by the standard procedure of leukocyte counting using a hemocytometer and cell viability was checked by the ability of cells to exclude Trypan blue.
Cellular proliferation was determined by the MTT [3-(4,5-dimethylthiazol-2-yl)-2,5-diphenyltetrazolium bromide] as say. Briefly, […] of MTT (5 mg/mL) was added to each well of 96-well plates containing 1×10^5 cells after treatment with different concentrations of samples for 4 days. The reaction was stopped after 2 h by adding […] of 0.04 N HCl in isopropanol and the OD570 nm was determined by a minicolorimetric reader. Each concentration treatment was performed in triplicate.

[3] = system: epidermoid carcinoma of the nasopharynx (KB); assay: Cytotoxicity Assays Method C, KB; type: cell-based; details: read-out: IC50 KB
[4] = system: p-gp-expressing epidermoid carcinoma of the nasopharynx (KB-VIN); assay: Cytotoxicity Assays Method C, KB-VIN; type: cell-based; details: for pIC50: 50% reduction in cell number after 72 hr of incubation; for activity against the MDR cell line KB-VIN (in words): summary of Table 3
Excerpt: Cytotoxicity Assays Method C (KB, KB-VIN, AS49, HCT-8, PC-3) [K. H. Lee et. al. Planta Med. 54, 308-312 (1998), Monk A et. al. J. Natl. Cancer Inst. 83, 757-766 (1991).] The cell lines included epidermoid caninoma of the nasopharynx (KB), p-gp-expressing epidermoid caninoma of the nasopharynx (KB-VIN), lung carcinoma (A-549), ileocecal carinoma (HCT-8) and prostate cancer (PC-3) cell lines.

lung carcinoma (A-549) = assay: Cytotoxicity Assays Method C, A-549; type: cell-based; details: read-out: IC50 A549
[5] = system: ileocecal carcinoma (HCT-8); assay: Cytotoxicity Assays Method C, HCT-8; type: cell-based; details: Homo sapiens, HCT-8, 72 h, read-out: IC50 HCT-8
prostate cancer (PC-3) = assay: Cytotoxicity Assays Method C, PC-3; type: cell-based; details: for pIC50: read-out: IC50 PC-3; for activity against the androgen-insensitive prostate cancer cell line PC-3 (in words): PC-3, summary of Table 3
Water solubility = type: physicochemical; details: water; in H2O
[6] = 96 h, HL-60, MTT, treatment for 4 days
[7] = HCT-8, 50% reduction in cell number after 72 hr of incubation

Structure (SMILES) | LC50 (50% lethal concentration) at 72 h [1] [µM] | TGI (Total growth Inhibition) (HUVEC) [µM] | pIC50 (HUVEC) | pIC50 (MCF-7) | CC50 (MCF-7) [µM] | TGI (Total growth Inhibition) (MCF-7) [µM] | cytotoxicity against MCF-7 (in words) (MCF-7) | TGI (Total growth Inhibition) (HT-29) [µM] | pIC50 (HT-29) | LC50 (50% lethal concentration) (HT-29) [µM] | cytotoxicity against Hep3B (in words) (Hep 3B) | TGI (Total growth Inhibition) (Hep 3B) [µM] | pIC50 ([3]; 72 h) | activity against the MDR cell line KB-VIN (in words) [4] | pIC50 (lung carcinoma (A-549); Homo sapiens, A549, 72 h) | pIC50 [5] | pIC50 (prostate cancer (PC-3); 72 h) | activity against the androgen-insensitive prostate cancer cell line PC-3 (in words) (prostate cancer (PC-3)) | pIC50 [4] | pIC50 [2, 6] | also measured
CC(OC(=O)CCC(=O)O)c1cc2c(s1)C(=O)c1sccc1C2=O (stereo not shown) [IIb-1, Mono-[1-(4,8-dioxo-4,8-dihydrobenzo[1,2-b:5,4-b′]dithiophen-2-yl)-ethyl]succinate] | 89 | 31 | 4.96 | 6.09 | 27 | 4.7 | significant activity | 2.0 | 5.37 | 89 | significant activity | 1.8 | 6.33 | potent activity | 6.24 | 6.04 | 6.66 | potent activity | – | – | pIC50 (Hep 3B): 5.96; CC50 (Hep 3B): 2.9 µM; pIC50 (NCI-H460): 6.19; CC50 (NCI-H460): 2100 nM; TGI (Total growth Inhibition) (NCI-H460): 1.2 µM; pIC50 ([2]; HL-60, 96 h): 6.59; pIC50 ([4]; Homo sapiens, KBVIN, 72 h): 6.60
CC(OC(=O)CCC(=O)O)c1cc2c(s1)C(=O)c1ccsc1C2=O (stereo not shown) [VII-1, Mono-[1-(4,8-dioxo-4,8-dihydroxybenzo[1,2-b;4,5-b′]dithiophen-2-yl)-ethyl]succinate] | > 100 | 57 | 4.96 | 6.02 | 31 | 5.5 | significant cytotoxicity | 38 | 5.35 | > 100 | significant cytotoxicity | 1.9 | 6.72 | potent activity | 6.33 | 6.38 | 6.80 | potent activity | 6.66 | – | activity against HT-29 (in words) (HT-29; HT-29, summary of Table 1): moderate activity; pIC50 (Hep 3B): 6.00; CC50 (Hep 3B): 3.4 µM; pIC50 (NCI-H460): 6.39; CC50 (NCI-H460): 3000 nM; TGI (Total growth Inhibition) (NCI-H460): 1.1 µM; pIC50 ([2]; HL-60, 96 h): 6.59
CC(OC(=O)CCCC(=O)O)c1cc2c(s1)C(=O)c1ccsc1C2=O (stereo not shown) [VII-2, Mono-[1-(4,8-dioxo-4,8-dihydroxybenzo[1,2-b;4,5-b′]dithiophen-2-yl)-ethyl]pentanedioate] | – | – | – | – | – | – | – | – | – | – | – | – | 7.10 | potent activity | 6.29 | 6.32 | 7.22 | potent activity | 6.62 | 6.55 | –
CC(OCC(=O)O)c1cc2c(s1)C(=O)c1ccsc1C2=O (stereo not shown) [IX, 1-(4,8-Dioxo-4,8-dihydroxybenzo[1,2-b:4,5-b′]-dithiophen-2-yl-ethoxy)-acetic acid] | – | – | – | – | – | – | – | – | – | – | – | – | – | – | – | – | – | – | 4.74 | 5.59 | pIC50 ([3]; KB, 50% reduction in cell number after 72 hr of incubation): 4.70; pIC50 (lung carcinoma (A-549); A549, 50% reduction in cell number after 72 hr of incubation): 5.59; pIC50 [5, 7]: 6.62; pIC50 (prostate cancer (PC-3); PC-3, 50% reduction in cell number after 72 hr of incubation): 5.60
CN(C)CCNC(=O)c1cc2c(s1)C(=O)c1ccsc1C2=O [XV-2-H3PO4, 4,8-dioxo-4,8-dihydrobenzo[1,2-b;4,5-b′]dithiophene-2-carboxylate-(2-dimethyl-aminoethyl)-amide phosphoric acid salt] | – | – | – | – | – | – | – | – | – | – | – | – | – | – | – | – | – | – | – | 7.30 | cytotoxicity against HL-60 (in words) ([2]; HL-60, summary of Table 2): the most potent one; pIC50 ([3]; 72 h, KB, 50% reduction in cell number after 72 hr of incubation): 7.22; pIC50 ([4]; Homo sapiens, KBVIN, 72 h): 8.00; pIC50 (lung carcinoma (A-549); Homo sapiens, A549, 72 h, A549, 50% reduction in cell number after 72 hr of incubation): 8.00; pIC50 [5, 7]: 8.00; pIC50 (prostate cancer (PC-3); 72 h, PC-3, 50% reduction in cell number after 72 hr of incubation): 8.00; solubility (Water solubility): ≥ 4000 µg/mL
